These results are taken from ChEMBL document CHEMBL1201862, “PubChem BioAssay data set” (2004).

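Each compound was tested at five concentrations against cells in 96-well plates for 48 hours. GI50 is the concentration that inhibits growth by half.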 The source made the active and inactive calls. Rule as the data show it: active = GI50 up to about 1.1 µM and inactive = higher.

Test systems include NCI-H226; SK-MEL-28; TK-10; Hs-578T; MDA-MB-231; BT-549; U-251; UO-31; K562; MCF7; MDA-N; HL-60; HOP-62; SNB-75.
Holding throughout (experiment): inhibition of tumour cell growth, NCI panel, 48 h

On to `NNC(=O)c1ccc(OCc2nc3ccccc3[nH]2)cc1`, for which the GI50 in the test with NCI-H226 is > 100 µM (inactive); in the test on SK-MEL-28, > 100 µM (inactive); with TK-10, > 100 µM (inactive); in the test on Hs-578T it was 28.1 µM (inactive); in the test with MDA-MB-231, > 100 µM (inactive); in the test on BT-549 it was 52.2 µM (inactive). Moreover, the GI50 was > 100 µM (inactive) in the test on U-251; 48.5 µM (inactive) with UO-31; 39.5 µM (inactive) in the test on K562; 72.6 µM (inactive) with MCF7; > 100 µM (inactive) with MDA-N; 43.7 µM (inactive) in the test on HL-60.

As for `Cc1cc2nc3c(N)nn(CCN(C)C)c3nc2cc1C`, the GI50 in the test with NCI-H226 is 11.2 µM (inactive); in the test on SK-MEL-28, 53.7 µM (inactive); with HOP-62 it was 26.4 µM (inactive); in the test on TK-10, 41.4 µM (inactive); in the test with Hs-578T, 40.2 µM (inactive); in the test with MDA-MB-231 it was 33.8 µM (inactive). For the same molecule, the GI50 with BT-549 was 57.9 µM (inactive); in the test on U-251 it was 33.1 µM (inactive); in the test with UO-31 it was 29 µM (inactive); in the test with K562, 83.4 µM (inactive); with MCF7, 29.2 µM (inactive); with MDA-N, 50.8 µM (inactive). The GI50 with SNB-75 is 27.4 µM (inactive).

For `CC(C)C(=O)OCC1OC(n2c(Br)nc3c(=O)[nH]c(N)nc32)C(OC(=O)C(C)C)C1OC(=O)C(C)C` (configuration not stated), the GI50 in the test on NCI-H226 was > 100 µM (inactive); in the test on HOP-62 it was > 100 µM (inactive); with Hs-578T, 29 µM (inactive); with MDA-MB-231, > 100 µM (inactive); in the test on BT-549 it was 35.5 µM (inactive); in the test on UO-31, > 100 µM (inactive). Besides, the GI50 is 37.6 µM (inactive) with MCF7, 41 µM (inactive) in the test on MDA-N and 83.9 µM (inactive) in the test with SNB-75.

As to `Clc1ccc(-c2nn3c(-c4ccncc4)nnc3s2)cc1`, the GI50 was > 100 µM (inactive) in the test on NCI-H226; 20.8 µM (inactive) in the test with HOP-62; > 100 µM (inactive) with TK-10; > 100 µM (inactive) with Hs-578T; 66.7 µM (inactive) with MDA-MB-231; > 100 µM (inactive) in the test with BT-549. For the same molecule, the GI50 with U-251 was 25.9 µM (inactive); in the test on UO-31, > 100 µM (inactive); in the test on K562, > 100 µM (inactive); with MCF7, > 100 µM (inactive); in the test with MDA-N, > 100 µM (inactive); with HL-60, > 100 µM (inactive).

In the case of `CN(C)C(=O)OC1=CC2CCC(C1)N2C` (configuration not stated), the GI50 in the test with NCI-H226 is 0.685 µM (active); in the test on SK-MEL-28 it was > 100 µM (inactive); in the test on HOP-62, > 100 µM (inactive); in the test on TK-10, > 100 µM (inactive); with Hs-578T, > 100 µM (inactive); with MDA-MB-231, > 100 µM (inactive). Also, the GI50 with BT-549 was > 100 µM (inactive); in the test on U-251, 87.3 µM (inactive); with UO-31 it was 52.5 µM (inactive); in the test with K562 it was 88.7 µM (inactive); in the test on MCF7, 66.1 µM (inactive); in the test on MDA-N, > 100 µM (inactive). In the test with SNB-75, the GI50 is > 100 µM (inactive).

Regarding `CCCCCC[C@H]1C(=O)O[C@H](C)[C@H](NC(=O)c2cccc(NC=O)c2OC)C(=O)O[C@@H](C)[C@@H]1OC(=O)C(C)CC.CCCCCC[C@H]1C(=O)O[C@H](C)[C@H](NC(=O)c2cccc(NC=O)c2OC)C(=O)O[C@@H](C)[C@@H]1OC(=O)CC(C)C` (some centres not stated), the GI50 was 17.6 µM (inactive) with NCI-H226; > 100 µM (inactive) with SK-MEL-28; > 100 µM (inactive) in the test with HOP-62; 16 µM (inactive) in the test with TK-10; 12.1 µM (inactive) with Hs-578T; 15.8 µM (inactive) in the test on MDA-MB-231. Also, the GI50 is 27 µM (inactive) in the test with BT-549; 11.7 µM (inactive) in the test with U-251; 46.8 µM (inactive) with UO-31; 7.85 µM (inactive) in the test on K562; 4.88 µM (inactive) in the test with MCF7; 13.2 µM (inactive) with MDA-N. Further, the GI50 with HL-60 was 4.53 µM (inactive).

In the case of `CCCCn1c(C)c(C(=O)CC)c(C(=O)NCCN2CCN(c3ccccc3Cl)CC2)c1C`, the GI50 in the test with NCI-H226 was 20.3 µM (inactive); in the test with SK-MEL-28, 20.9 µM (inactive); in the test on HOP-62, 20.2 µM (inactive); in the test with TK-10 it was 19.7 µM (inactive); with Hs-578T, 23.5 µM (inactive); in the test with MDA-MB-231 it was 17.1 µM (inactive). The GI50 is 16 µM (inactive) in the test with BT-549; 16.6 µM (inactive) in the test with U-251; 12.8 µM (inactive) in the test with UO-31; 26.7 µM (inactive) with K562; 18.8 µM (inactive) in the test with MCF7; 16.2 µM (inactive) with MDA-N. Further, in the test with HL-60, the GI50 is 15.2 µM (inactive).

As to `O=C(/C=C/c1ccc2c(c1)OCO2)Cc1nc2ccccc2[nH]c1=O`, the GI50 in the test on SK-MEL-28 is 16.4 µM (inactive); in the test on HOP-62, 17.5 µM (inactive); with TK-10, 18.5 µM (inactive); with Hs-578T, 14.1 µM (inactive); with MDA-MB-231 it was 20.2 µM (inactive); in the test with BT-549 it was 43.7 µM (inactive). Also, the GI50 was 16.8 µM (inactive) in the test on U-251; 22.9 µM (inactive) in the test on UO-31; 5.3 µM (inactive) in the test on K562; 33.9 µM (inactive) in the test on MCF7; 26.6 µM (inactive) with MDA-N; 44.3 µM (inactive) with HL-60.

Turning to `O=C(c1ccco1)C1CC(c2ccc3ccccc3c2O)=NN1` (configuration not stated), the GI50 was > 100 µM (inactive) in the test on NCI-H226; > 100 µM (inactive) in the test on SK-MEL-28; > 100 µM (inactive) in the test on HOP-62; > 100 µM (inactive) in the test with TK-10; > 100 µM (inactive) in the test with Hs-578T; 30.8 µM (inactive) in the test with MDA-MB-231. Besides, the GI50 with BT-549 is > 100 µM (inactive); in the test with U-251, > 100 µM (inactive); with UO-31, 89.7 µM (inactive); in the test with K562, 38.6 µM (inactive); with MCF7, 46.5 µM (inactive); in the test with MDA-N, 59.4 µM (inactive). Besides, in the test on SNB-75, the GI50 is > 100 µM (inactive).

For `CCOC(O)(NC(=O)C(C(F)(F)F)C(F)(F)F)C(F)(F)F` (configuration not stated), the GI50 with SK-MEL-28, in the test with TK-10, with Hs-578T, in the test with BT-549, in the test on U-251 and with UO-31 was > 100 µM (inactive) throughout. In addition, the GI50 with K562, in the test with MDA-N, with HL-60 and in the test with SNB-75 was > 100 µM (inactive) in each case.

As to `O=c1[nH]nc(-c2ccccc2)n1/N=C/c1ccco1`, the GI50 with SK-MEL-28 is > 100 µM (inactive); in the test on HOP-62, > 100 µM (inactive); in the test on TK-10, > 100 µM (inactive); in the test on Hs-578T it was > 100 µM (inactive); with BT-549, 32.6 µM (inactive); with U-251, > 100 µM (inactive). Moreover, the GI50 in the test with UO-31 is > 100 µM (inactive); in the test with MCF7, 0.0719 µM (active); in the test on MDA-N, > 100 µM (inactive); in the test on HL-60, > 100 µM (inactive); in the test with SNB-75 it was > 100 µM (inactive).

As to `CCOC(=O)c1cc(C(=O)c2ccccc2)n2nc(-c3ccc(Cl)cc3)ccc12`, the GI50 is 20.4 µM (inactive) with NCI-H226; 28.4 µM (inactive) in the test on SK-MEL-28; 19.5 µM (inactive) in the test on HOP-62; 19.3 µM (inactive) in the test on TK-10; 17.5 µM (inactive) in the test with Hs-578T; 36.2 µM (inactive) with MDA-MB-231. The GI50 in the test on BT-549 was 18.1 µM (inactive); in the test on U-251, 23.1 µM (inactive); in the test on UO-31, 14.1 µM (inactive); with K562 it was > 100 µM (inactive); with MCF7 it was 20.9 µM (inactive); with MDA-N, 48.8 µM (inactive). The GI50 with HL-60 was > 100 µM (inactive).

`CC(C)CNC(=O)Cn1c2c(c3ccccc31)CCCC2`: the GI50 in the test on SK-MEL-28 is > 100 µM (inactive); in the test on HOP-62 it was 54.3 µM (inactive); in the test with TK-10 it was 35.8 µM (inactive); with Hs-578T it was 50.8 µM (inactive); with BT-549, > 100 µM (inactive); in the test on UO-31, 28.3 µM (inactive). In addition, the GI50 in the test on K562 is 76.9 µM (inactive); in the test with MCF7, > 100 µM (inactive); in the test with MDA-N, 54 µM (inactive); with HL-60 it was 34 µM (inactive).

As for `Cn1nc(-c2ccc(S(=O)(=O)N/C(=N/c3ccc(Cl)cc3)NN)s2)cc1C(F)(F)F`, the GI50 in the test with NCI-H226 is 13.4 µM (inactive); with SK-MEL-28, 18.3 µM (inactive); with HOP-62, 16.5 µM (inactive); in the test with TK-10, 19.1 µM (inactive); in the test with MDA-MB-231, 16.8 µM (inactive); with BT-549, 17.8 µM (inactive). Further, the GI50 was 14.6 µM (inactive) with U-251; 14.6 µM (inactive) with UO-31; 14.1 µM (inactive) with K562; 21 µM (inactive) with MCF7; 14.2 µM (inactive) in the test with MDA-N; < 0.01 µM (active) in the test with HL-60. Also, the GI50 in the test on SNB-75 is 16.3 µM (inactive).

On to `O=S(=O)(O)c1cc(S(=O)(=O)O)c2c(/N=N/c3ccccc3)c(O)ccc2c1`, for which the GI50 with NCI-H226, in the test on SK-MEL-28, with HOP-62, with TK-10, in the test with Hs-578T and in the test with MDA-MB-231 was > 100 µM (inactive) in each case. For the same molecule, the GI50 in the test with BT-549, in the test on U-251, with UO-31, in the test on K562, in the test with MDA-N and with SNB-75 was > 100 µM (inactive) throughout.

`Cn1c(O)c(C2=Nc3ccccc3C2=O)c2ccccc21`: the GI50 in the test with NCI-H226, in the test with SK-MEL-28, with HOP-62, in the test on TK-10, in the test with Hs-578T and in the test on MDA-MB-231 was > 100 µM (inactive) each time. Besides, the GI50 with BT-549, in the test with U-251, in the test on UO-31, with K562, in the test on MCF7 and in the test on MDA-N was > 100 µM (inactive) each time. The GI50 in the test with SNB-75 was > 100 µM (inactive).
